Columns and labels:
[1] = system: B16 murine melanoma tumours; assay: Ex vivo biodistribution of [18F]-labelled compounds; type: in vivo, C57BL/6J mice
Experimental: All our studies were performed in accordance with French and European Economic Community (86-609, EEC) guidelines for care of laboratory animals. Protocols were performed under the authorization of the French Direction des Services Veterinaires (authorization no. CE 86-12). Male C57BL/6J mice were originating from Charles River laboratories and maintained at 21° C. with a 12 h/12 h light/dark cycle, fed with a breeding diet (diet A04 from Safe, Villemoisson, France) and received water ad libitum. For transplantation B16BL6 cell suspension were grown in a monolayer culture to confluence, after which cells were trypsinized, washed with phosphate buffer saline (PBS) and they were resuspended in PBS. Mice were anesthetized by isoflurane (4% for induction and 2±0.5% for maintaining in oxygen flux) inhalation. The primary tumour model was induced by subcutaneous injection of 3×10^5 melanoma B16B16 cells in 0.1 mL on the right shoulder of mice.
Ex vivo biodistribution studies: An ex vivo biodistribution study was performed for better comparison of [^18F](1) and [^18F](5). Experimentations were undertaken at day-10 or day-14 after cell inoculation (n=3-6/group). […] Tumours and major organs and tissues were promptly excised, harvested, weighted and their radioactivity counted using a calibrated γ-counter with a 400 to 600 keV energy window. After radioactive decay correction, results were expressed as percentage of injected dose per gram of tissue (% ID/g).

SKMEL-3 tumours = assay: PET imaging in SKMEL-3 tumour bearing mice; type: in vivo, Swiss nudes mice; conditions: 1 h p.i.
Experimental: Protocols were performed under the authorization of the French Direction des Services Veterinaires (authorization no. CE 86-12). Female Swiss nudes mice (6 weeks old) were originating from Charles River laboratories and maintained at 21° C. with a 12 h/12 h light/dark cycle, fed with a breeding diet (diet A04 from Safe, Villemoisson, France) and received water ad libitum. For transplantation cell suspension were grown in a monolayer culture to confluence, after which cells were trypsinized, washed with phosphate buffer saline (PBS) and they were resuspended in PBS. Mice were anesthetized by isoflurane (4% for induction and 2±0.5% for maintaining in oxygen flux) inhalation. The primary tumour model was induced by subcutaneous injection of 3×10^6 melanoma SKMEL-3 (pigmented cell line) or A375 (non-pigmented cell ligne) cells in 0.1 mL on the right shoulder of mice.
Whole-body PET scans were acquired 1 h after bolus injection of 10 MBq of [^18F](1) in a volume of 0.15 ml via the tail vein. […]
Regional tracer uptake was quantified by standard region-of-interest (ROI) analysis with eXplore Vista software package. […]

CCN(CCNC(=O)c1cnc2cc(I)ccc2n1)CCOCCOCCOCC[18F] [[^18F](1)] was tested, and the “% ID/g (tumour)” value ([1]; 1 h p.i.) was 14.05 ± 1.42 % ID/g, the “% ID/g Blood” value ([1]; 1 h p.i.) was 1.42 ± 0.32 % ID/g and the “% ID/g Bones” value ([1]; 1 h p.i.) was 1.40±0.10 % ID/g. For the same molecule, the “% ID/g Brain” value ([1]; 1 h p.i.) was 1.82 ± 0.08 % ID/g, the “% ID/g Ceacum” value ([1]; 1 h p.i.) was 7.27 ± 0.62 % ID/g and the “% ID/g Colon + faeces” value ([1]; 1 h p.i.) was 7.17 ± 2.93 % ID/g. The “% ID/g Eyes” value ([1]; 1 h p.i.) was 18.36 ± 4.74 % ID/g, the “% ID/g Heart” value ([1]; 1 h p.i.) was 2.72 ± 0.18 % ID/g and the “% ID/g Kidney” value ([1]; 1 h p.i.) was 3.46 ± 0.53 % ID/g. The “% ID/g Liver” value ([1]; 1 h p.i.) was 2.56 ± 0.22 % ID/g, the “% ID/g Lung” value ([1]; 1 h p.i.) was 1.86 ± 0.15 % ID/g and the “% ID/g Muscle” value ([1]; 1 h p.i.) was 1.17 ± 0.12 % ID/g. The “% ID/g Pancreas” value ([1]; 1 h p.i.) was 2.09 ± 0.42 % ID/g, the “% ID/g Skin” value ([1]; 1 h p.i.) was 1.44 ± 0.19 % ID/g and the “% ID/g Small intestine” value ([1]; 1 h p.i.) was 7.58 ± 1.80 % ID/g. The “% ID/g Spleen” value ([1]; 1 h p.i.) was 3.72 ± 1.49 % ID/g, the “% ID/g Stomach” value ([1]; 1 h p.i.) was 4.41 ± 1.36 % ID/g and the “TBR Tumour-to-Blood Ratio” value ([1]; 1 h p.i.) was 10.24 ± 2.83. The “TBoR Tumour-to-Bone Ratio” value ([1]; 1 h p.i.) was 10.11 ± 1.87, the “TMR Tumour-to-Muscle Ratio” value ([1]; 1 h p.i.) was 12.12 ± 2.29 and the “% ID/g (tumour)” value ([1]; 2 h p.i.) was 13.07 ± 1.22 % ID/g. For the same molecule, the “% ID/g Blood” value ([1]; 2 h p.i.) was 1.12 ± 0.24 % ID/g, the “% ID/g Bones” value ([1]; 2 h p.i.) was 1.96 ± 0.51 % ID/g and the “% ID/g Brain” value ([1]; 2 h p.i.) was 1.39 ± 0.25 % ID/g. The “% ID/g Ceacum” value ([1]; 2 h p.i.) was 8.94 ± 1.78 % ID/g, the “% ID/g Colon + faeces” value ([1]; 2 h p.i.) was 6.05 ± 1.72 % ID/g and the “% ID/g Eyes” value ([1]; 2 h p.i.) was 18.17 ± 3.15 % ID/g. The “% ID/g Heart” value ([1]; 2 h p.i.) was 2.14 ± 0.33 % ID/g, the “% ID/g Kidney” value ([1]; 2 h p.i.) was 2.18 ± 0.43 % ID/g and the “% ID/g Liver” value ([1]; 2 h p.i.) was 1.88 ± 0.34 % ID/g. For the same molecule, the “% ID/g Lung” value ([1]; 2 h p.i.) was 1.65 ± 0.11 % ID/g, the “% ID/g Muscle” value ([1]; 2 h p.i.) was 0.92 ± 0.15 % ID/g and the “% ID/g Pancreas” value ([1]; 2 h p.i.) was 1.33 ± 0.28 % ID/g. For the same molecule, the “% ID/g Skin” value ([1]; 2 h p.i.) was 1.51 ± 0.53 % ID/g, the “% ID/g Small intestine” value ([1]; 2 h p.i.) was 4.28 ± 1.18 % ID/g and the “% ID/g Spleen” value ([1]; 2 h p.i.) was 2.88 ± 2.11 % ID/g. The “% ID/g Stomach” value ([1]; 2 h p.i.) was 2.48 ± 0.88 % ID/g, the “TBR Tumour-to-Blood Ratio” value ([1]; 2 h p.i.) was 12.19 ± 3.32 and the “TBoR Tumour-to-Bone Ratio” value ([1]; 2 h p.i.) was 7.13 ± 2.21. The “TMR Tumour-to-Muscle Ratio” value ([1]; 2 h p.i.) was 14.46 ± 2.62, the “% ID/g (tumour)” value ([1]; 3 h p.i.) was 11.55±1.24 % ID/g and the “% ID/g Blood” value ([1]; 3 h p.i.) was 0.80 ± 0.07 % ID/g. For the same molecule, the “% ID/g Bones” value ([1]; 3 h p.i.) was 3.27 ± 0.70 % ID/g, the “% ID/g Brain” value ([1]; 3 h p.i.) was 1.37 ± 0.35 % ID/g and the “% ID/g Ceacum” value ([1]; 3 h p.i.) was 10.79 ± 1.54 % ID/g. The “% ID/g Colon + faeces” value ([1]; 3 h p.i.) was 8.09 ± 5.04 % ID/g, the “% ID/g Eyes” value ([1]; 3 h p.i.) was 17.96 ± 2.73 % ID/g and the “% ID/g Heart” value ([1]; 3 h p.i.) was 2.32 ± 0.50 % ID/g. The “% ID/g Kidney” value ([1]; 3 h p.i.) was 2.19 ± 0.36 % ID/g, the “% ID/g Liver” value ([1]; 3 h p.i.) was 1.99 ± 0.45 % ID/g and the “% ID/g Lung” value ([1]; 3 h p.i.) was 1.60 ± 0.09 % ID/g. The “% ID/g Muscle” value ([1]; 3 h p.i.) was 0.81 ± 0.10 % ID/g, the “% ID/g Pancreas” value ([1]; 3 h p.i.) was 1.33 ± 0.35 % ID/g and the “% ID/g Skin” value ([1]; 3 h p.i.) was 1.05 ± 0.12 % ID/g. The “% ID/g Small intestine” value ([1]; 3 h p.i.) was 3.91 ± 1.05 % ID/g, the “% ID/g Spleen” value ([1]; 3 h p.i.) was 1.87 ± 0.38 % ID/g and the “% ID/g Stomach” value ([1]; 3 h p.i.) was 2.81 ± 2.23 % ID/g. The “TBR Tumour-to-Blood Ratio” value ([1]; 3 h p.i.) was 14.43±1.75, the “TBoR Tumour-to-Bone Ratio” value ([1]; 3 h p.i.) was 3.70 ± 1.17 and the “TMR Tumour-to-Muscle Ratio” value ([1]; 3 h p.i.) was 14.46±3.06. The in vivo defluorination ([1]; 3 h p.i.) was “Partial in vivo defluorinations”, the muscles activity (SKMEL-3 tumours; SKMEL-3 tumour bearing mice) was 1.34±0.42 % ID/g and the tumour uptake (SKMEL-3 tumours; day-27, pigmented SKMEL-3 tumours) was 4.65±1.07 % ID/g.

Source: patent US20150079000A1, “Labelled Quinoxaline Derivatives as Multimodal Radiopharmaceuticals and Their Precursors” (INSTITUT NATIONAL DE LA SANTET DE LA RECHERCHE MEDICALE, priority 2012, published 2015)
